The NIST ThermoML archive (doi:10.1021/je049662k)

Details: Liquid; for mass density: isochoric method; for viscosity: Falling or rolling sphere viscometry

CCC(C)C(C)C (stereo unspecified) [2,3-dimethylpentane]
Details | mass density [kg/m3] | viscosity [mPa·s]
278.15 K, 100 kPa | 707.6 | –
278.15 K, 1000 kPa | 708.3 | –
278.15 K, 5000 kPa | 711.6 | –
278.15 K, 10000 kPa | 715.5 | –
278.15 K, 15000 kPa | 719.1 | –
278.15 K, 20000 kPa | 722.7 | –
278.15 K, 25000 kPa | 726 | –
278.15 K, 30000 kPa | 729.2 | –
278.15 K, 35000 kPa | 732.2 | –
278.15 K, 40000 kPa | 735.2 | –
278.15 K, 45000 kPa | 738 | –
283.15 K, 100 kPa | 703.2 | –
283.15 K, 1000 kPa | 704 | –
283.15 K, 5000 kPa | 707.4 | –
283.15 K, 10000 kPa | 711.5 | –
283.15 K, 15000 kPa | 715.3 | –
283.15 K, 20000 kPa | 718.9 | –
283.15 K, 25000 kPa | 722.3 | –
283.15 K, 30000 kPa | 725.6 | –
283.15 K, 35000 kPa | 728.7 | –
283.15 K, 40000 kPa | 731.7 | –
283.15 K, 45000 kPa | 734.6 | –
293.15 K, 100 kPa | 694.9 | –
293.15 K, 1000 kPa | 695.7 | –
293.15 K, 5000 kPa | 699.3 | –
293.15 K, 10000 kPa | 703.6 | –
293.15 K, 15000 kPa | 707.7 | –
293.15 K, 20000 kPa | 711.5 | –
293.15 K, 25000 kPa | 715.1 | –
293.15 K, 30000 kPa | 718.6 | –
293.15 K, 35000 kPa | 721.9 | –
293.15 K, 40000 kPa | 725 | –
293.15 K, 45000 kPa | 728 | –
303.15 K, 100 kPa | 686.3 | 0.356
303.15 K, 1000 kPa | 687.2 | 0.36
303.15 K, 5000 kPa | 691.1 | 0.377
303.15 K, 10000 kPa | 695.7 | 0.398
303.15 K, 15000 kPa | 700 | 0.419
303.15 K, 20000 kPa | 704.1 | 0.441
303.15 K, 25000 kPa | 707.9 | 0.462
303.15 K, 30000 kPa | 711.6 | 0.485
303.15 K, 35000 kPa | 715 | 0.507
303.15 K, 40000 kPa | 718.3 | 0.53
303.15 K, 45000 kPa | 721.5 | 0.553
303.15 K, 50000 kPa | – | 0.576
303.15 K, 55000 kPa | – | 0.6
303.15 K, 60000 kPa | – | 0.624
313.15 K, 100 kPa | 677.6 | 0.324
313.15 K, 1000 kPa | 678.6 | 0.328
313.15 K, 5000 kPa | 682.8 | 0.343
313.15 K, 10000 kPa | 687.7 | 0.361
313.15 K, 15000 kPa | 692.3 | 0.38
313.15 K, 20000 kPa | 696.6 | 0.399
313.15 K, 25000 kPa | 700.7 | 0.418
313.15 K, 30000 kPa | 704.5 | 0.438
313.15 K, 35000 kPa | 708.2 | 0.458
313.15 K, 40000 kPa | 711.6 | 0.479
313.15 K, 45000 kPa | 715 | 0.5
313.15 K, 50000 kPa | – | 0.522
313.15 K, 55000 kPa | – | 0.544
313.15 K, 60000 kPa | – | 0.566
323.15 K, 100 kPa | 668.7 | 0.29
323.15 K, 1000 kPa | 669.8 | 0.294
323.15 K, 5000 kPa | 674.3 | 0.308
323.15 K, 10000 kPa | 679.6 | 0.326
323.15 K, 15000 kPa | 684.5 | 0.344
323.15 K, 20000 kPa | 689.1 | 0.362
323.15 K, 25000 kPa | 693.4 | 0.381
323.15 K, 30000 kPa | 697.5 | 0.399
323.15 K, 35000 kPa | 701.3 | 0.418
323.15 K, 40000 kPa | 705 | 0.437
323.15 K, 45000 kPa | 708.4 | 0.457
323.15 K, 50000 kPa | – | 0.476
323.15 K, 55000 kPa | – | 0.496
323.15 K, 60000 kPa | – | 0.517
333.15 K, 100 kPa | 659.7 | 0.262
333.15 K, 1000 kPa | 660.9 | 0.266
333.15 K, 5000 kPa | 665.8 | 0.28
333.15 K, 10000 kPa | 671.5 | 0.298
333.15 K, 15000 kPa | 676.7 | 0.316
333.15 K, 20000 kPa | 681.6 | 0.334
333.15 K, 25000 kPa | 686.2 | 0.352
333.15 K, 30000 kPa | 690.5 | 0.369
333.15 K, 35000 kPa | 694.5 | 0.387
333.15 K, 40000 kPa | 698.3 | 0.404
333.15 K, 45000 kPa | 702 | 0.422
333.15 K, 50000 kPa | – | 0.439
333.15 K, 55000 kPa | – | 0.457
333.15 K, 60000 kPa | – | 0.474
343.15 K, 100 kPa | 650.6 | 0.244
343.15 K, 1000 kPa | 651.9 | 0.247
343.15 K, 5000 kPa | 657.2 | 0.26
343.15 K, 10000 kPa | 663.3 | 0.276
343.15 K, 15000 kPa | 668.9 | 0.292
343.15 K, 20000 kPa | 674.1 | 0.309
343.15 K, 25000 kPa | 678.9 | 0.325
343.15 K, 30000 kPa | 683.5 | 0.342
343.15 K, 35000 kPa | 687.7 | 0.359
343.15 K, 40000 kPa | 691.7 | 0.376
343.15 K, 45000 kPa | 695.5 | 0.393
343.15 K, 50000 kPa | – | 0.41
343.15 K, 55000 kPa | – | 0.428
343.15 K, 60000 kPa | – | 0.445
353.15 K, 100 kPa | 641.3 | 0.232
353.15 K, 1000 kPa | 642.7 | 0.234
353.15 K, 5000 kPa | 648.5 | 0.246
353.15 K, 10000 kPa | 655.1 | 0.261
353.15 K, 15000 kPa | 661.1 | 0.276
353.15 K, 20000 kPa | 666.6 | 0.291
353.15 K, 25000 kPa | 671.7 | 0.306
353.15 K, 30000 kPa | 676.5 | 0.321
353.15 K, 35000 kPa | 680.9 | 0.336
353.15 K, 40000 kPa | 685.1 | 0.35
353.15 K, 45000 kPa | 689.1 | 0.365
353.15 K, 50000 kPa | – | 0.381
353.15 K, 55000 kPa | – | 0.395
353.15 K, 60000 kPa | – | 0.411

Cc1ccccc1 [toluene]
viscosity [mPa·s]
Details | 303.15 K | 313.15 K | 323.15 K | 333.15 K | 343.15 K | 353.15 K
100 kPa | 0.525 | 0.469 | 0.422 | 0.382 | 0.349 | 0.32
1000 kPa | 0.526 | 0.474 | 0.427 | 0.386 | 0.351 | 0.32
5000 kPa | 0.544 | 0.487 | 0.439 | 0.397 | 0.362 | 0.331
10000 kPa | 0.568 | 0.509 | 0.458 | 0.413 | 0.376 | 0.344
15000 kPa | 0.593 | 0.529 | 0.476 | 0.43 | 0.391 | 0.359
20000 kPa | 0.617 | 0.55 | 0.495 | 0.446 | 0.406 | 0.373
25000 kPa | 0.64 | 0.57 | 0.514 | 0.463 | 0.421 | 0.387
30000 kPa | 0.662 | 0.59 | 0.533 | 0.48 | 0.437 | 0.401
35000 kPa | 0.685 | 0.61 | 0.552 | 0.497 | 0.453 | 0.415
40000 kPa | 0.707 | 0.63 | 0.572 | 0.515 | 0.469 | 0.429
45000 kPa | 0.729 | 0.651 | 0.592 | 0.533 | 0.485 | 0.443
50000 kPa | 0.752 | 0.671 | 0.612 | 0.551 | 0.502 | 0.458
55000 kPa | 0.774 | 0.693 | 0.633 | 0.571 | 0.52 | 0.473
60000 kPa | 0.797 | 0.715 | 0.654 | 0.59 | 0.537 | 0.488

CCCCCCC [heptane]
viscosity [mPa·s]
Details | 303.15 K | 313.15 K | 323.15 K | 333.15 K | 343.15 K | 353.15 K
100 kPa | 0.368 | 0.33 | 0.303 | 0.273 | 0.245 | 0.231
1000 kPa | 0.371 | 0.334 | 0.306 | 0.276 | 0.247 | 0.233
5000 kPa | 0.387 | 0.348 | 0.319 | 0.289 | 0.26 | 0.246
10000 kPa | 0.408 | 0.368 | 0.336 | 0.306 | 0.277 | 0.262
15000 kPa | 0.429 | 0.388 | 0.354 | 0.323 | 0.294 | 0.278
20000 kPa | 0.45 | 0.407 | 0.371 | 0.34 | 0.31 | 0.293
25000 kPa | 0.471 | 0.427 | 0.389 | 0.357 | 0.326 | 0.307
30000 kPa | 0.492 | 0.446 | 0.406 | 0.374 | 0.341 | 0.322
35000 kPa | 0.514 | 0.465 | 0.424 | 0.39 | 0.357 | 0.336
40000 kPa | 0.535 | 0.484 | 0.442 | 0.407 | 0.372 | 0.349
45000 kPa | 0.556 | 0.503 | 0.461 | 0.423 | 0.387 | 0.361
50000 kPa | 0.578 | 0.522 | 0.479 | 0.439 | 0.402 | 0.374
55000 kPa | 0.6 | 0.542 | 0.498 | 0.456 | 0.416 | 0.386
60000 kPa | 0.622 | 0.562 | 0.517 | 0.472 | 0.431 | 0.397
